The results in this text go back to patent US20260209152A1, “Substituted Hydroxystilbene Compounds and Derivatives, Synthesis and Uses Thereof” (Kynan Duke IP, LLC, priority 2019, published 2026).

What all share (type): cell-based, human
The subject of one assay is Bladder RT-112. The assay can be described thus: CellTiter Glo cell viability assay. The following applies: Homo sapiens. How it is done:
(§1) 1.7*10^3 cells/well were seeded in quadruplicates in 96-well plate after plating. Drugs were added at 5 μM and 2-fold dilutions over 18 concentrations (0.000038146-5 […] range) to generate a dose-response curve. Cell growth was assessed on day 1, 3 and 5 after drug treatments using the CellTiter Glo Luminescence Cell Viability Assay (Promega) according to manufacturer's protocol. Thermo Scientific Varioskan LUX Multimode Microplate instrument was used for plate reading. Data are expressed as mean luminescence (arbitrary units) ±S.D.
(§2) Cell Viability Assays were employed to determine the concentration of Compound 1 (KYN-001) and analogues where the response is reduced by half. For each treatment of cancer cells, 1, 2, 5, 10 and 20 μM solutions of compounds were applied. GraphPad Prism 7 software was used to fit dose response curves. Relative Luminescence Units were plotted against the log values of the doses used and the nonlinear regression model was used for data analysis.
(§3) The protocol for cell proliferation was optimized for Compound 8 (KYN-119) to enable a more accurate assessment of its low IC50 value. In this protocol, 18 dosages (2 fold dilutions ranging from 0.000038146 to 5 μM) were applied to cells seeded in 96-well plates, and Luminescence was measured after 1, 3 and 5 days upon treatments.

A further assay relates to Kidney ACHN. Description: CellTiter Glo cell viability assay. To be noted: Homo sapiens, ACHN, read-out: IC50. How it is done:
as §1, §2, §3

Assay [1] has as its system Cancer cells including pancreatic, bladder, kidney, colon, breast, lung, liver and osteosarcomas. The assay can be described thus: CellTiter Glo cell viability assay, panel of cancer cell lines. The following applies: for Cancer cell viability inhibition, statement in words: SAR discussion based on IC50 values in Tables 1 to 5, compared with 1 [KYN-001]; for Fold reduction in cancer cell viability inhibition vs 1 [KYN-001]: cell lines tested. The protocol:
Compounds 1 to 15 were evaluated and their effect on cancer growth examined in cell viability assays on multiple cancer types (Tables 1 to 5). Cancer cells including pancreatic, bladder, kidney, colon, breast, lung, liver and osteosarcomas obtained from ATCC (American Type Culture Collection) were authenticated before use by Short Tandem Repeat genomic analysis (Reid Y, Storts D, Riss T and Minor L. Authentication of Human Cell Lines by STR DNA Profiling Analysis. 2013 May 1. In: Markossian S, Sittampalam G S, Grossman A, et al., editors. Assay Guidance Manual. Bethesda (MD): Eli Lilly & Company and the National Center for Advancing Translational Sciences; 2004.). Experimental protocol for each cancer cell line was verified and optimized according to literature reports before use (Tables 1 to 3).
as §1, §2, §3

The test system of another assay is Pancreatic MIA PaCa-2. Description: CellTiter Glo cell viability assay. The protocol:
as §1, §2, §3
Day 3 upon treatment of MIA PaCa_2 pancreatic cancer cells, 24 h after plating (11 dilutions), as assessed by CellTiter Glow Assay.

The next assay has as its system Kidney A-498. The assay can be described thus: CellTiter Glo cell viability assay. How it is done:
1.7*10^3 cells/well were seeded in quadruplicates in 96-well plate after plating. […] Cell growth was assessed on day 1, 3 and 5 after drug treatments using the CellTiter Glo Luminescence Cell Viability Assay (Promega) according to manufacturer's protocol. Thermo Scientific Varioskan LUX Multimode Microplate instrument was used for plate reading. Data are expressed as mean luminescence (arbitrary units) ±S.D.
Cell Viability Assays were employed to determine the concentration of Compound 1 (KYN-001) and analogues where the response is reduced by half. […] GraphPad Prism 7 software was used to fit dose response curves. Relative Luminescence Units were plotted against the log values of the doses used and the nonlinear regression model was used for data analysis.
The protocol for cell proliferation was optimized for Compound 8 (KYN-119) to enable a more accurate assessment of its low IC50 value. […]

The subject of another assay is Breast MDA-MB-231. The assay can be described thus: CellTiter Glo cell viability assay. To be noted: Homo sapiens, read-out: IC50. The protocol: as §1, §2, §3
Another assay deals with Bladder 5637. Description: CellTiter Glo cell viability assay. The following applies: Homo sapiens, 120 h; Day 5 upon drug treatment; 10 dosages 0.0001-20 μM (Compound 8: 18 dosages 0.000038146 to 5 μM); read-out: IC50. How it is done:
as §1, §2, §3

For another assay, the system named is Colon HCT_116. Description: CellTiter Glo cell viability assay. The following applies: Homo sapiens, HCT-116, 120 h; Day 5 upon drug treatment; 10 dosages 0.0001-20 μM (Compound 8: 18 dosages 0.000038146 to 5 μM); read-out: IC50. The protocol: as §1, §2, §3
The next assay has as its system Lung NCI-H1299. The assay can be described thus: CellTiter Glo cell viability assay. To be noted: Homo sapiens, NCI-H1299, 72 h. How it is done:
as §1, §2, §3

For the next assay, the system named is Colon SW_480. Description: CellTiter Glo cell viability assay. The following applies: Homo sapiens, SW480, 72 h; Day 3 upon drug treatment; 10 dosages 0.0001-20 μM; read-out: IC50.
Setting [2] is: RT-112, 72 h, Table 4: 3 Days of treatment, 18 2-fold dilutions 5-0.00003 μM, Average (1, 8) or single Exp A-D, read-out: IC50.
Setting [3] is: Homo sapiens, MIA PaCa-2, Table 5A: 11 dilutions 3-0.00001 μM, single experiments Exp E-K, read-out: IC50.
Setting [4] is: Table 5A: 11 dilutions 3-0.00001 μM, single experiments Exp E-K, read-out: IC50.
Setting [5] is: Homo sapiens, A498, 72 h, Table 4: 3 Days of treatment, 18 2-fold dilutions 5-0.00003 μM, Average (1, 8) or single Exp A-D, read-out: IC50.
Where [6] appears, read: Homo sapiens, A498, Table 5A: 11 dilutions 3-0.00001 μM, single experiments Exp E-K, read-out: IC50.
Where [7] appears, read: MDA-MB-231, 120 h, Day 5 upon drug treatment, 10 dosages 0.0001-20 μM (Compound 8: 18 dosages 0.000038146 to 5 μM).
[8] abbreviates: RT-112, 120 h, Day 5 upon drug treatment, 10 dosages 0.0001-20 μM (Compound 8: 18 dosages 0.000038146 to 5 μM), read-out: IC50.
Where [9] appears, read: 120 h, Day 5 upon drug treatment, 10 dosages 0.0001-20 μM (Compound 8: 18 dosages 0.000038146 to 5 μM).
Setting [10] is: Homo sapiens, MIA PaCa-2, 120 h, Day 5 upon drug treatment, 10 dosages 0.0001-20 μM (Compound 8: 18 dosages 0.000038146 to 5 μM), read-out: IC50.

Each structure is given as a SMILES string. Entries after “also recorded” stand apart in the source; their conditions may differ. Like-named read-outs stand apart in the source and are kept apart here.

`CCCOc1cc(O)cc(/C=C/c2ccc(O)c(OC)c2)c1CC=C(C)C` [Compound 9, (E)-3-(4-hydroxy-3-methoxystyryl)-4-(3-methylbut-2-en-1-yl)-5-propoxyphenol]: the IC50 was 22 nM with Bladder RT-112 (setting [2]); 609 nM in the assay on Kidney ACHN (72 h, Table 4: 3 Days of treatment, 18 2-fold dilutions 5-0.00003 μM, Average (1, 8) or single Exp A-D); 100 to 1000 nM in the assay with Pancreatic MIA PaCa-2 (setting [3]); 115 nM with Pancreatic MIA PaCa-2 (setting [4]); 19 nM in the assay with Kidney A-498 (setting [5]); 100 to 1000 nM in the assay on Kidney A-498 (setting [6]). Also, in the assay with Kidney A-498 (setting [4]), the IC50 worked out at 147 nM. The “Cancer cell viability inhibition, statement in words” value in [1] is reported as “comparable or weaker biological activity”.
Turning to `COC(=O)CNc1ccc(/C=C/c2cc(O)cc(OC)c2CC=C(C)C)cc1OC` [Compound 33, Methyl (E)-(4-(5-hydroxy-3-methoxy-2-(3-methylbut-2-en-1-yl)styryl)-2-methoxyphenyl)glycinate], the half-maximal inhibitory concentration (IC50) is 169 nM in the assay on Breast MDA-MB-231 (setting [7]); 85.9 nM in the assay on Bladder 5637; 95.5 nM in the assay on Bladder RT-112 (setting [8]); 680 nM in the assay with Colon HCT_116; 2840 nM in the assay on Kidney ACHN (setting [9]); 96.8 nM in the assay on Pancreatic MIA PaCa-2 (setting [10]). In the assay with Pancreatic MIA PaCa-2 (setting [3]), the IC50 is 2040 nM. Moreover, the “Cancer cell viability inhibition, statement in words” value in assay [1] is on record as “marginally less potent than the parent compound 1”.
Regarding `COc1cc(/C=C/c2cc(O)cc(OC(F)(F)F)c2CC=C(C)C)ccc1O` [Compound 11, (E)-3-(4-hydroxy-3-methoxystyryl)-4-(3-methylbut-2-en-1-yl)-5-(trifluoromethoxy)phenol], the concentration for half-maximal inhibition (IC50) came out at 193 nM in the assay on Lung NCI-H1299 (Table 4: 3 Days of treatment, 18 2-fold dilutions 5-0.00003 μM, Average (1, 8) or single Exp A-D, read-out: IC50); 39.2 nM with Bladder RT-112 (setting [2]); 665 nM with Pancreatic MIA PaCa-2 (Homo sapiens, MIA PaCa-2, 72 h, Table 4: 3 Days of treatment, 18 2-fold dilutions 5-0.00003 μM, Average (1, 8) or single Exp A-D, read-out: IC50); 104 nM with Kidney A-498 (setting [5]).
In the case of `CCOc1cc(C=Cc2cc(O)cc(OC)c2CC=C(C)C)ccc1O` [Compound 12, 3-(3-Ethoxy-4-hydroxystyryl)-5-methoxy-4-(3-methylbut-2-en-1-yl)phenol], the IC50 came to 827 nM with Lung NCI-H1299; 347 nM in the assay on Bladder RT-112 (RT-112, 72 h); 1090 nM in the assay on Pancreatic MIA PaCa-2 (Homo sapiens, MIA PaCa-2); 822 nM in the assay with Kidney A-498 (Homo sapiens, A498, 72 h, Table 4: 3 Days of treatment, 18 2-fold dilutions 5-0.00003 μM, Average (1, 8) or single Exp A-D). Further, the “Fold reduction in cancer cell viability inhibition vs 1 [KYN-001]” value in assay [1] is “approximately 10”.
On to `COc1cc(/C=C/c2cc(O)cc(OC)c2CC=C(C)C)cc(C)c1O` [Compound 17, (E)-4-(5-Hydroxy-3-methoxy-2-(3-methylbut-2-en-1-yl)styryl)-2-methoxy-6-methylphenol], for which the IC50 was determined as 246 nM in the assay on Breast MDA-MB-231 (setting [7]); 104 nM with Bladder 5637; 115 nM with Bladder RT-112 (setting [8]); 353 nM in the assay with Colon HCT_116; 283 nM in the assay on Kidney ACHN (setting [9]); 182 nM with Pancreatic MIA PaCa-2 (setting [10]). In addition, the IC50 with Pancreatic MIA PaCa-2 (setting [3]) is 1150 nM; in the assay with Kidney A-498 (setting [6]), 100 to 1000 nM; in the assay on Kidney A-498 (setting [4]), 142 nM. Moreover, in assay [1], the “Cancer cell viability inhibition, statement in words” value was “marginally less potent than the parent compound 1”. In assay [1], the “Fold reduction in cancer cell viability inhibition vs 1 [KYN-001]” value is listed as “approximately 3”.
As for `COc1cc(/C=C/c2cc(O)cc(OC)c2Cc2ccccc2)ccc1O` [Compound 7, (E)-4-benzyl-3-(4-hydroxy-3-methoxystyryl)-5-methoxyphenol], the half-maximal inhibitory concentration (IC50) was 170 nM in the assay with Bladder RT-112 (setting [2]), 288 nM with Kidney A-498 (setting [5]), 100 to 1000 nM with Kidney A-498 (setting [6]) and 199 nM in the assay on Kidney A-498 (setting [4]).
As to `COc1cc(/C=C/c2cc(O)cc(OC)c2CC=C(C)C)ccc1[N+](=O)[O-]` [Compound 22, (E)-3-Methoxy-5-(3-methoxy-4-nitrostyryl)-4-(3-methylbut-2-en-1-yl)phenol], the IC50 with Breast MDA-MB-231 (setting [7]) amounted to 6200 nM. Further, in [1], the “Cancer cell viability inhibition, statement in words” value is on record as “Loss of the anti-proliferative effect”.
`COc1cc(/C=C/c2cc(O)cc(OC)c2CC=C(C)C)ccc1NC(C)=O` [Compound 29, (E)-N-(4-(5-hydroxy-3-methoxy-2-(3-methylbut-2-en-1-yl)styryl)-2-methoxyphenyl)acetamide]: the IC50 in the assay with Breast MDA-MB-231 (setting [7]) was 155 nM; in the assay on Bladder 5637, 67.4 nM; in the assay with Bladder RT-112 (setting [8]), 76.4 nM; with Colon HCT_116, 627 nM; with Kidney ACHN (setting [9]), 281 nM; in the assay with Pancreatic MIA PaCa-2 (setting [10]) it was 185 nM. In addition, in [1], the “Cancer cell viability inhibition, statement in words” value is “marginally less potent than the parent compound 1”.
On to `COc1cc(/C=C/c2cc(O)cc(OC)c2CC=C(C)C)ccc1N` [Compound 23, (E)-3-(4-Amino-3-methoxystyryl)-5-methoxy-4-(3-methylbut-2-en-1-yl)phenol], for which the 50% inhibitory concentration (IC50) was determined as 138 nM in the assay with Breast MDA-MB-231 (setting [7]); 65.3 nM in the assay with Bladder 5637; 68.2 nM in the assay on Bladder RT-112 (setting [8]); 474 nM in the assay on Colon HCT_116; 260 nM with Kidney ACHN (setting [9]); 180 nM in the assay with Pancreatic MIA PaCa-2 (setting [10]). In addition, the “Cancer cell viability inhibition, statement in words” value in [1] is “marginally less potent than the parent compound 1; also recorded: activity similar to but overall reduced”.
As for `COc1cc(/C=C/c2cc(O)cc(OC)c2Br)ccc1O` [Compound 45, (E)-4-Bromo-3-(4-hydroxy-3-methoxystyryl)-5-methoxyphenol], the IC50 is about 10300 nM in the assay with Breast MDA-MB-231 (MDA-MB-231, 72 h, Day 3 upon drug treatment, 10 dosages 0.0001-20 μM); 20400 nM in the assay with Pancreatic MIA PaCa-2 (Homo sapiens, MIA PaCa-2, 72 h, Day 3 upon drug treatment, 10 dosages 0.0001-20 μM, read-out: IC50); 10800 nM in the assay with Colon SW_480.
Regarding `C=CCc1c(/C=C/c2ccc(O)c(OC)c2)cc(O)cc1OC` [Compound 6, (E)-4-allyl-3-(4-hydroxy-3-methoxystyryl)-5-methoxyphenol], the IC50 in the assay with Bladder RT-112 (setting [2]) came out at 862 nM; with Pancreatic MIA PaCa-2 (setting [3]), 1280 nM; with Kidney A-498 (setting [5]) it was 1590 nM; in the assay on Kidney A-498 (setting [6]) it was 1090 nM.
